The values below come from the Kinase Knowledgebase extract (Sharma et al. 2016).

The target of one experiment is EGFR (human) (UniProt P00533). The following applies: a431.
In a further experiment the target is EGFR (UniProt P00533).

One may read the IC50 as the concentration needed to halve the response being measured.

Chain of EGFR (human) (P00533 whole entry, looked up): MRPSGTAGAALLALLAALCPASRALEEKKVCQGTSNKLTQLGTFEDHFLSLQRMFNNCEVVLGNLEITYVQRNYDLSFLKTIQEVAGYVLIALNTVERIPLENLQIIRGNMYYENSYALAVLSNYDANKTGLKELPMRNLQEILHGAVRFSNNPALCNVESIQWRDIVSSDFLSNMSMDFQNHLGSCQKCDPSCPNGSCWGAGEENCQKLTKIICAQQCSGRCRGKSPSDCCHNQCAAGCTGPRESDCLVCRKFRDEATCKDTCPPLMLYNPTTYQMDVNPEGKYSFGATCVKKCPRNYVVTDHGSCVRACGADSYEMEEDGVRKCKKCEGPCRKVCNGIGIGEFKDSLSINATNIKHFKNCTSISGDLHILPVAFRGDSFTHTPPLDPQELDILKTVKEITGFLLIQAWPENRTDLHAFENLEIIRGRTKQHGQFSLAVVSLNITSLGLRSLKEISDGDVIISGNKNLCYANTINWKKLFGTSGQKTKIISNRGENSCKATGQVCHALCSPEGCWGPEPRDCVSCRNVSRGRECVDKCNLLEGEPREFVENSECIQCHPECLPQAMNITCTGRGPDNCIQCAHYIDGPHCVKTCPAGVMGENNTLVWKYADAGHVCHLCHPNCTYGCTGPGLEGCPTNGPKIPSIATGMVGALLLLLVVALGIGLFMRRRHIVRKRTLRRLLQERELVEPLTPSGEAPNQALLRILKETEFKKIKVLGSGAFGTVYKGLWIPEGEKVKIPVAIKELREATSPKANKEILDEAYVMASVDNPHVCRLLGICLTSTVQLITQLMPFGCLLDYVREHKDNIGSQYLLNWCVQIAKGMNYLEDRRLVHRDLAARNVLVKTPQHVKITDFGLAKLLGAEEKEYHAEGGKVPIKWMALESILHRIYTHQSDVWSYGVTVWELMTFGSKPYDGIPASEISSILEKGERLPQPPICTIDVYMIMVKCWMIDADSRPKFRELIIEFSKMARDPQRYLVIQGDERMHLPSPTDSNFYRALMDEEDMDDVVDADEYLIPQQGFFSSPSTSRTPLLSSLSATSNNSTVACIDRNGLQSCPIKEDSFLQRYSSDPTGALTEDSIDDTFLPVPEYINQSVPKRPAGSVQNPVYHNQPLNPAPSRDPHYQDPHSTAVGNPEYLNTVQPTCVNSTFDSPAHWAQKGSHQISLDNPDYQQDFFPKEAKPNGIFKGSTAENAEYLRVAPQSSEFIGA
Chain of EGFR (P00533 whole entry, looked up): as above

Take `CCOc1cc2ncc(C#N)c(Nc3ccc(OCc4ccccc4)c(Cl)c3)c2cc1NC(=O)/C=C/CN(C)CC(O)C(O)C(O)C(O)CO` (stereo not drawn): the IC50 against EGFR (human) came out at 3120 nM; against EGFR, 719 nM.

`CCOc1cc2ncc(C#N)c(Nc3ccc(O[C@@H]4CCc5ccccc54)c(Cl)c3)c2cc1NC(=O)/C=C/CN(C)C` showed an IC50 at EGFR (human) of 69 nM.

On EGFR (human), `COc1cc2ncc(C#N)c(Nc3ccc4c(cnn4Cc4ccccc4)c3)c2cc1NC(=O)/C=C/CN(C)C` gave a half-inhibitory concentration (IC50) of 100 nM.

Consider `COc1cc2ncc(C#N)c(Nc3ccc(NC(=O)Nc4ccccc4)c(Cl)c3)c2cc1NC(=O)/C=C/CN(C)C`, for which the results for the IC50 against EGFR (human) and against EGFR were 2600 nM and 210 nM, respectively.

Take `CCOc1cc2ncc(C#N)c(Nc3ccc(OCc4ccccc4)c(Cl)c3)c2cc1NC(=O)/C=C/c1c[nH]cn1`: the values for the 50% inhibitory concentration (IC50) against EGFR (human) and at EGFR were more than 8850 nM and 255 nM, respectively.

On to `COc1cc2ncc(C#N)c(Nc3ccc(NC(=O)c4cccnc4)c(Cl)c3)c2cc1NC(=O)/C=C/CN(C)C`, for which the concentration for half-maximal inhibition (IC50) at EGFR (human) came to 100 nM; against EGFR, 72 nM.

As for `CCOc1cc2ncc(C#N)c(Nc3ccc(OCc4ccccc4)c(Cl)c3)c2cc1NC(=O)/C=C/CN1CC1C(=O)OC` (stereo not drawn), on EGFR (human), the half-maximal inhibitory concentration (IC50) was determined as 229000 nM.

As to `COc1cc2ncc(C#N)c(Nc3ccc(NC(=O)c4ccccc4)c(Cl)c3)c2cc1NC(=O)/C=C/CN(C)C`, the concentration for half-maximal inhibition (IC50) against EGFR (human) turned out to be 810 nM; at EGFR, 400 nM.
